Results published in PMC5698301, “Dual Coating of Liposomes as Encapsulating Matrix of Antimicrobial Peptides: Development and Characterization” (Frontiers in Chemistry, 2017).
Peptide text beside a SMILES is read from it.

Legend:
pepsin = details: in all liposomal formulations; SGF with pepsin 3.2 mg/mL, 2 h, 37 ± 0.5°C, HPLC
Protocol: The dissolution experiment was performed according to Liu et al. ([2012]) with some modifications. Different samples were placed in a simulated gastric fluid for 2 h (SGF: 0.2 g of NaCl dissolved in 0.7 mL of HCl and filled up to 100 ml with distilled water then pepsin was added at a concentration of 3.2 mg/mL). Then, the dissolution was performed in simulated intestinal fluid (SIF: 6.8 g of potassium phosphate monobasic sodium hydroxide with a pH adjusted to 7.4 with 2N sodium hydroxide to a volume of 100 mL and a concentration of 0.2 mg/mL bovine bile extract), the pH was adjusted to 7.4. Pancreatin was added at a concentration of 20 mg/mL (equivalent to a protease activity of 500 U/mL). The dissolution was performed for 4 h at a temperature of 37 ± 0.5°C with stirring at 140 rpm. To perform the experiment 3 ml of the individual suspensions of liposomes was added to 3 mL of gastric fluid and samples of 500 μL of medium are removed at intervals of 1 h for the gastric fluid portion and at 0, 15, 30, 60, 120, 240 min during the intestinal dissolution. The contents MccJ25 samples were determined by HPLC. […] The blank was performed in similar conditions with a solution of non-encapsulated MccJ25.

S. enteritidis = assay: Microtitration assay (critical dilution), activity in AU; assay type: cell-based, Salmonella enteritidis
Protocol: The second activity test was carried out using the same strain (S. enteritidis) in polystyrene 96-well micro-assay plates (Microtest, Becton–Dickinson Labware, MD, USA) as described by Ennaas et al. ([2016]). Briefly, fractions were added to microplates and diluted 2-folds with LB broth. Then, wells were seeded with ~1 × 10^4 CFU of strain per well using log-phase culture diluted in LB to 0.5–1.0 × 10^6 CFU ml^−1. The plates were incubated for 18 h at 37°C. After incubation, OD at 595 nm was measured using an Infinite® F200 PRO photometer (Tecan US Inc., Durham, NC). Antimicrobial activity results were expressed as arbitrary units per milliliter (AU ml^−1) that calculated as follows:
AU ml^−1 = (1,000/100) × 2 n, where n = number of inhibited wells.

Compound	Resistance of MccJ25 to gastric digestion (pepsin)	Specific activity (AU/mg) (S. enteritidis; activity per mg protein (Lowry method))	Inhibitory activity (AU/ml) (S. enteritidis; microtitration assay, S. enteritidis, 2-fold dilutions in LB, 18 h at 37°C, OD 595 nm)
CC[C@H](C)[C@H](NC(=O)CNC(=O)[C@@H](NC(=O)[C@H](Cc1ccccc1)NC(=O)[C@H](Cc1ccc(O)cc1)NC(=O)[C@@H]1CCC(=O)NCC(=O)NCC(=O)N[C@@H](C)C(=O)NCC(=O)N[C@@H](Cc2cnc[nH]2)C(=O)N[C@@H](C(C)C)C(=O)N2CCC[C@H]2C(=O)N1)C(C)C)C(=O)NCC(=O)N[C@H](C(=O)N1CCC[C@H]1C(=O)N[C@H](C(=O)N[C@@H](CO)C(=O)N[C@@H](Cc1ccccc1)C(=O)N[C@@H](Cc1ccc(O)cc1)C(=O)NCC(=O)O)[C@@H](C)CC)[C@@H](C)O [MccJ25, microcin J25] (HELM PEPTIDE1{G.G.A.G.H.V.P.E.Y.F.V.G.I.G.T.P.I.S.F.Y.G}$PEPTIDE1,PEPTIDE1,1:R1-8:R3$$$V2.0)	resisted gastric digestion		
CC[C@H](C)[C@H](NC(=O)CNC(=O)[C@@H](NC(=O)[C@H](Cc1ccccc1)NC(=O)[C@H](Cc1ccc(O)cc1)NC(=O)[C@@H]1CCC(=O)NCC(=O)NCC(=O)N[C@@H](C)C(=O)NCC(=O)N[C@@H](Cc2c[nH]cn2)C(=O)N[C@@H](C(C)C)C(=O)N2CCC[C@H]2C(=O)N1)C(C)C)C(=O)NCC(=O)N[C@H](C(=O)N1CCC[C@H]1C(=O)N[C@H](C(=O)N[C@@H](CO)C(=O)N[C@@H](Cc1ccccc1)C(=O)N[C@@H](Cc1ccc(O)cc1)C(=O)NCC(=O)O)[C@@H](C)CC)[C@@H](C)O [MccJ25, microcin J25] (HELM PEPTIDE1{G.G.A.G.H.V.P.E.Y.F.V.G.I.G.T.P.I.S.F.Y.G}$PEPTIDE1,PEPTIDE1,1:R1-8:R3$$$V2.0; C-terminus assumed; bridges inferred)		181,352 AU/mg	524,288 AU/ml
